Holding throughout (assay type): cell-based
One experiment deals with HIV-1 NL4-3 strain (WT). Kind of experiment: microbe, parasite or virus in culture. Here is the method:
(§1) Susceptibilities to various RT inhibitors were determined using the MAGIC-5 cells which are HeLa cells stably transfected with a β-galactosidase gene under the control of an HIV long terminal repeat promoter, and with vectors that express the CD4 receptor and the CCR5 co-receptor under the control of the CMV promoter as described previously. Briefly, MAGIC-5 cells were infected with diluted virus stock (100 blue forming units) in the presence of increasing concentrations of RT inhibitors, cultured for 48 h, fixed, and stained with X-Gal (5-bromo-4-chloro-3-indolyl-β-D-galacto-pyranoside). The stained cells were counted under a light microscope.

Another experiment deals with HIV-1 WT. Kind of experiment: Single-cycle drug susceptibility assay (MAGIC-5 cells), recombinant WT clone. Particulars: Human immunodeficiency virus 1, Table S2. Here is the method:
(§2) The NL4-3-based molecular clone was constructed by replacing the pol-coding region with the HIV-1 BH10 strain. […] Each molecular clone was transfected into COS-7 cells. Cells were grown for 48 h, and culture supernatants were harvested and stored at −80°C until use.
as §1

In a further experiment the test system is HIV-1 Q151Mc/K70N. Kind of experiment: Single-cycle drug susceptibility assay (MAGIC-5 cells). Here is the method: as §2, §1
The next experiment relates to HIV-1 K70R. The experiment is described as above. Here is the method:
as §2, §1

In the next experiment the test system is HIV-1 K70N. Described as above. Here is the method: as §2, §1
The test system of another experiment is HIV-1 Q151Mc/K70G. Described as above. Here is the method: as §2, §1
Another experiment concerns HIV-1 Q151Mc/K70R. The description is as above. Here is the method:
as §2, §1

In the next experiment the test system is HIV-1 Q151Mc/K70Q. The description is as above. Here is the method:
as §2, §1

The test system of another experiment is HIV-1 K70G. The experiment is described as above. Here is the method: as §2, §1
The next experiment concerns HIV-1 K70T. The description is as above. Here is the method:
as §2, §1

The next experiment deals with HIV-1 K70Q. The description is as above. Particulars: Human immunodeficiency virus 1, MAGIC-5; K70Q. Here is the method:
as §2, §1

In the next experiment the test system is HIV-1 K70E. The description is as above. Here is the method: as §2, §1
For another experiment, the system named is HIV-1 Q151Mc/K70E. The description is as above. Here is the method: as §2, §1
For another experiment, the system named is HIV-1 Q151Mc. The experiment is described as above. Particulars: Human immunodeficiency virus 1, MAGIC-5. Here is the method: as §2, §1
In the next experiment the test system is HIV-1 Q151Mc/K70T. Described as above. Here is the method:
as §2, §1

The subject of experiment [1] is HIV-1 clinical isolate 2 (Q151Mc + K70Q). The experiment is described as follows: Single-cycle drug susceptibility assay (MAGIC-5 cells), clinical isolate 2. The note with it: Human immunodeficiency virus 1; clinical isolate 2, MAGIC-5 cells. Here is the method:
(§3) HIV was isolated from fresh plasma immediately after collection of clinical samples from study participants at the outpatient clinic of the AIDS Clinical Center (ACC), International Medical Center of Japan. The Institutional Review Board approved this study (IMCJ-H13-80) and a written consent was obtained from all participants.
as §1

Experiment [2] relates to HIV-1 clinical isolate 1 (Q151Mc-containing). The experiment is described as follows: Single-cycle drug susceptibility assay (MAGIC-5 cells), clinical isolate 1. The note with it: Human immunodeficiency virus 1; clinical isolate 1, MAGIC-5 cells. Here is the method:
as §3, §1

Setting [3] is: Human immunodeficiency virus 1, NL43, MAGIC-5.
Setting [4] is: Human immunodeficiency virus 1, NL43, WT, MAGIC-5 cells, Table S1, read-out: EC50.

Like-named read-outs stand apart in the source and are kept apart here.

These results are taken from paper PMC3020970, “K70Q Adds High-Level Tenofovir Resistance to “Q151M Complex” HIV Reverse Transcriptase through the Enhanced Discrimination Mechanism” (PLoS ONE, 2011).

For `Cc1cn([C@H]2C[C@H](N=[N+]=[N-])[C@@H](CO)O2)c(=O)[nH]c1=O` [AZT, zidovudine], the EC50 (usually the concentration that produces a half-maximal response) with HIV-1 NL4-3 strain (WT) (setting [3]) is 0.023 ± 0.002 µM.
Take `Nc1ccn([C@@H]2CS[C@H](CO)O2)c(=O)n1` [3TC, lamivudine]: the EC50 in the experiment with HIV-1 WT came to 1.4 ± 0.16 µM; in the experiment on HIV-1 Q151Mc/K70N (Human immunodeficiency virus 1, MAGIC-5, Q151Mc/K70N), 15 ± 1.7 µM; with HIV-1 K70R (Human immunodeficiency virus 1, MAGIC-5, K70R), 2.5 ± 0.46 µM; in the experiment on HIV-1 K70N (Human immunodeficiency virus 1, MAGIC-5, K70N), 2.2 ± 0.25 µM; in the experiment on HIV-1 Q151Mc/K70G (Human immunodeficiency virus 1, MAGIC-5, Q151Mc/K70G) it was 46 ± 2.5 µM; in the experiment with HIV-1 Q151Mc/K70R (Human immunodeficiency virus 1, MAGIC-5, Q151Mc/K70R), 16 ± 1.5 µM. For the same molecule, the EC50 is 81 ± 0.08 µM in the experiment on HIV-1 Q151Mc/K70Q (Human immunodeficiency virus 1, MAGIC-5, Q151Mc/K70Q); 26 ± 0.58 µM in the experiment on HIV-1 K70G (Human immunodeficiency virus 1, MAGIC-5, K70G); 4.3 ± 0.29 µM in the experiment on HIV-1 K70T (Human immunodeficiency virus 1, MAGIC-5, K70T); 4.6 ± 0.53 µM in the experiment on HIV-1 K70Q; 16 ± 2.1 µM in the experiment with HIV-1 K70E (Human immunodeficiency virus 1, MAGIC-5, K70E); 11 ± 1.4 µM with HIV-1 Q151Mc/K70E (Human immunodeficiency virus 1, MAGIC-5, Q151Mc/K70E). For the same molecule, the EC50 was found to be 29 ± 3.2 µM in the experiment on HIV-1 Q151Mc; 12 ± 2.5 µM in the experiment on HIV-1 Q151Mc/K70T (Human immunodeficiency virus 1, MAGIC-5, Q151Mc/K70T); 1.4 ± 0.15 µM in the experiment on HIV-1 NL4-3 strain (WT) (setting [4]). The “Fold increase in EC50 compared to HIV-1 Q151Mc” value was “(0.5) fold” in the experiment with HIV-1 Q151Mc/K70N (Q151Mc/K70N vs Q151Mc); “(1.6) fold” with HIV-1 Q151Mc/K70G (Q151Mc/K70G vs Q151Mc); “(0.6) fold” in the experiment with HIV-1 Q151Mc/K70R (Q151Mc/K70R vs Q151Mc); “(2.8) fold” in the experiment on HIV-1 Q151Mc/K70Q (Q151Mc/K70Q vs Q151Mc); “(0.4) fold” in the experiment with HIV-1 Q151Mc/K70E (Q151Mc/K70E vs Q151Mc); “(0.4) fold” with HIV-1 Q151Mc/K70T (Q151Mc/K70T vs Q151Mc). The “Fold increase in EC50 compared to HIV-1 WT” value with HIV-1 K70R (K70R vs WT) was “(1.8) fold”; in the experiment with HIV-1 K70N (K70N vs WT), “(1.6) fold”; with HIV-1 K70G (K70G vs WT) it was “(19) fold”; in the experiment on HIV-1 K70T (K70T vs WT), “(3.1) fold”; in the experiment on HIV-1 K70E (K70E vs WT), “(11) fold”.
Regarding `Nc1nc(=O)n([C@@H]2CS[C@H](CO)O2)cc1F` [FTC, emtricitabine], the values for the EC50 (in experiment [1]; in [2]; with HIV-1 NL4-3 strain (WT) (setting [3])) were 2.1 ± 0.17 µM, 3.5 ± 0.12 µM and 0.4 ± 0.03 µM, respectively.
Take `O=C1Nc2ccc(Cl)cc2[C@@](C#CC2CC2)(C(F)(F)F)O1` [EFV, efavirenz]: the EC50 is more than 1 µM in experiment [1], more than 1 µM in experiment [2] and 0.002 ± 0.0001 µM in the experiment on HIV-1 NL4-3 strain (WT) (setting [4]).
